Legend:
Format in all cases: biochemical
[1] = molecular target: MAGL (Homo sapiens (Human), UniProt Q99685); experiment: In vitro competitive activity-based protein profiling, MAGL (human); conditions: human proteome; for inhibition at 10 µM: read-out: MAGL % inh. 10 μM (human); for inhibition at 1 µM: read-out: MAGL % inh. 1 μM (human)
Procedure: (§1) In Vitro Competitive Activity-Based Protein Profiling.
(§2) Proteomes (mouse brain membrane fraction or cell lysates for mouse assays; human prefrontal cortex or cell membrane fractions for human assays) (50 μL, 1.0 mg/mL total protein concentration) were preincubated with varying concentrations of inhibitors at 37° C. After 30 min, FP—Rh or HT-01 (1.0 μL, 50 μM in DMSO) was added and the mixture was incubated for another 30 min at 37° C. Reactions were quenched with SDS loading buffer (15 μL-4×) and run on SDS-PAGE. Following gel imaging, serine hydrolase activity was determined by measuring fluorescent intensity of gel bands corresponding to MAGL and FAAH using ImageJ 1.43u software.

[2] = molecular target: FAAH (Homo sapiens (Human), UniProt O00519); experiment: In vitro competitive activity-based protein profiling, FAAH (human); conditions: human proteome; for inhibition at 10 µM: read-out: FAAH % inh. 10 μM (human); for inhibition at 1 µM: read-out: FAAH % inh. 1 μM (human)
FAAH (Homo sapiens (Human), UniProt O00519), sequence (O00519 whole entry): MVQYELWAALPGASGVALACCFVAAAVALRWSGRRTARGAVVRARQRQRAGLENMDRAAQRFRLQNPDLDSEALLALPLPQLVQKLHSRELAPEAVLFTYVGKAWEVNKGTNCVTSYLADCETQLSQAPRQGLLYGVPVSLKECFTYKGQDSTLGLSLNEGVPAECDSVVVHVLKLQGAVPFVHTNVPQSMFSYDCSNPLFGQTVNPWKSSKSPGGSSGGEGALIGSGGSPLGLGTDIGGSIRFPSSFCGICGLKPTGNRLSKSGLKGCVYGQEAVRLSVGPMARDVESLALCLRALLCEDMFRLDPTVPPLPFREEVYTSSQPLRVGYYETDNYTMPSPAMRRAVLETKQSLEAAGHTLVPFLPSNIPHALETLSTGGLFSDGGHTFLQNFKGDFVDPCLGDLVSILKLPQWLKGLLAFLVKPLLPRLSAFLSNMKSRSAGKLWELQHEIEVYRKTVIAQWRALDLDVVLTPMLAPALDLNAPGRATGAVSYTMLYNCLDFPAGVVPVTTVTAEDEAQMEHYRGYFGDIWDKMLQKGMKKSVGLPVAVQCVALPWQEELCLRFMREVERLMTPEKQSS
Procedure: as §1, §2

[3] = molecular target: FAAH (Mus musculus (Mouse), UniProt O08914); experiment: In vitro competitive activity-based protein profiling, FAAH (mouse); conditions: for inhibition at 1 µM: read-out: FAAH % inh. 1 μM (mouse)
FAAH (Mus musculus (Mouse), UniProt O08914), sequence (O08914 whole entry): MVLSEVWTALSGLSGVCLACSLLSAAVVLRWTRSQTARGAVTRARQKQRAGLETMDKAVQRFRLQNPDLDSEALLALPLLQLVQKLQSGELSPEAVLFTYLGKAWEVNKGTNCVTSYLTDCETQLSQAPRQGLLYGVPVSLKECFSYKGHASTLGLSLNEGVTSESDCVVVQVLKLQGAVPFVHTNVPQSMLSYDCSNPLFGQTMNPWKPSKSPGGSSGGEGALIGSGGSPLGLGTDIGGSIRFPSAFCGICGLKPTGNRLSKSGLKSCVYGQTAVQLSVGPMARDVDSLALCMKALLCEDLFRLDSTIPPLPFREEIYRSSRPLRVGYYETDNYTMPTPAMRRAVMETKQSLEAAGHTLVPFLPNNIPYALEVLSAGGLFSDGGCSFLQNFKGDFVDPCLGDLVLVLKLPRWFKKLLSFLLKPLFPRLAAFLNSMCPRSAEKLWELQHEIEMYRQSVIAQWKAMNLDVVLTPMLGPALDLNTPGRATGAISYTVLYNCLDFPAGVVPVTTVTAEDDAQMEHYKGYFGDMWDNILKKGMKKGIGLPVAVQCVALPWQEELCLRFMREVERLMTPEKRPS
Summary of the method: (§3)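 Proteomes at 1.0 mg/mL protein (mouse brain membranes or cell lysates; human prefrontal cortex or cell membranes) preincubated with inhibitor 30 min at 37 °C. Then FP-Rh or HT-01 probe (50 μM stock) added for 30 min at 37 °C. MAGL and FAAH activity measured by SDS-PAGE band fluorescence.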

[4] = molecular target: MAGL (Mus musculus (Mouse), UniProt O35678); experiment: In vitro competitive activity-based protein profiling, MAGL (mouse); conditions: for inhibition at 1 µM: read-out: MAGL % inh. 1 μM (mouse)
MAGL (Mus musculus (Mouse), UniProt O35678), sequence (O35678 whole entry): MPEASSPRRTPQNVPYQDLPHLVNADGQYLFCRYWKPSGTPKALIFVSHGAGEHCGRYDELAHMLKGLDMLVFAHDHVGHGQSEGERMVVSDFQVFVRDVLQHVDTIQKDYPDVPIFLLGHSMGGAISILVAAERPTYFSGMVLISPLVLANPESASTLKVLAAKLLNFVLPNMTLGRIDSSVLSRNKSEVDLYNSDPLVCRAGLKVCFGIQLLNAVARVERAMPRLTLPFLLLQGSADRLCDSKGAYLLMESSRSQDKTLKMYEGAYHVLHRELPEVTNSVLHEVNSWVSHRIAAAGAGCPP
Summary of the method: as §3

MAGL (Homo sapiens (Human), UniProt Q99685), sequence (Q99685 whole entry): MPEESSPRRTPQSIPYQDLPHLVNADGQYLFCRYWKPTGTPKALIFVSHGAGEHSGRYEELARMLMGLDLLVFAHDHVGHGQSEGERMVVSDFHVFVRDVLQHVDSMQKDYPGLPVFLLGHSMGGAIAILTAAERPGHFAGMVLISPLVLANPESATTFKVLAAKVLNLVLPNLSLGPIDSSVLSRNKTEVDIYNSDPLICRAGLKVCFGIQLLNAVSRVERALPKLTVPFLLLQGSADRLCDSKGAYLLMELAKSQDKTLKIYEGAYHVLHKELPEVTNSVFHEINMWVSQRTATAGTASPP

SMILES	inhibition at 10 µM [1]	inhibition at 10 µM [2]	inhibition at 1 µM [3]	inhibition at 1 µM [4]	inhibition at 1 µM [1]	inhibition at 1 µM [2]	further results
COc1ccccc1CN1CC2CN(C(=O)n3cc(N(C)C(C)=O)cn3)CC2C1 (centres unmarked) [Example 183, N-(1-(5-(2-methoxybenzyl)octahydropyrrolo[3,4-c]pyrrole-2-carbonyl)-1H-pyrazol-4-yl)-N-methylacetamide]	≥ 75%	≥ 75%	≥ 75%	0 to 25%			
CC(=O)N(C)c1cnn(C(=O)N2CC3CN(Cc4ccc(CN5CCOCC5)cc4)CC3C2)c1 (centres unmarked) [Example 225, N-methyl-N-(1-(5-(4-(morpholinomethyl)benzyl)octahydropyrrolo[3,4-c]pyrrole-2-carbonyl)-1H-pyrazol-4-yl)acetamide]	≥ 75%	≥ 75%	25 to 50%	0 to 25%			
CS(=O)(=O)Nc1cnn(C(=O)N2CCN(Cc3ccc(-c4nc5ccccc5s4)cc3C(F)(F)F)CC2)c1 [Example 305, N-(1-(4-(4-(benzo[d]thiazol-2-yl)-2-(trifluoromethyl)benzyl)piperazine-1-carbonyl)-1H-pyrazol-4-yl)methanesulfonamide]					≥ 75%	≥ 75%	
CS(=O)(=O)Nc1cnn(C(=O)N2CCN(Cc3ccc(-c4cncnc4)cc3C(F)(F)F)CC2)c1 [Example 290, N-(1-(4-(4-(pyrimidin-5-yl)-2-(trifluoromethyl)benzy1)piperazine-1-carbonyl)-1H-pyrazol-4-yl)methanesulfonamide]					≥ 75%	≥ 75%	
CC(=O)N(C)c1cnn(C(=O)N2CCC3(CCN(Cc4ccccc4N4CCOCC4)C3)C2)c1 (centres unmarked) [Example 62, N-methyl-N-(1-(7-(2-morpholinobenzyl)-2,7-diazaspiro[4.4]nonane-2-carbonyl)-1H-pyrazol-4-yl)acetamide]	25 to 50%	≥ 75%	0 to 25%	0 to 25%			
CS(=O)(=O)Nc1cnn(C(=O)N2CCN(Cc3ccc(-c4ncccn4)cc3C(F)(F)F)CC2)c1 [Example 310]					≥ 75%	≥ 75%	
CC(=O)N(C)c1cnn(C(=O)N2CC3(CCN(Cc4ccccc4C(F)(F)F)CC3)C2)c1 [Example 90, N-methyl-N-(1-(7-(2-(trifluoromethyl)benzyl)-2,7-diazaspiro[3.5]nonane-2-carbonyl)-1H-pyrazol-4-yl)acetamide]	25 to 50%	≥ 75%	≥ 75%	0 to 25%			
CN(Cc1ccccc1C(F)(F)F)[C@@H]1C[C@@H]2CN(C(=O)n3cc(NS(C)(=O)=O)cn3)C[C@@H]2C1 [Example 300, N-(1-(cis-5-(methyl(2-(trifluoromethyl)benzyl)amino)octahydrocyclopenta[c]pyrrole-2-carbonyl)-1H-pyrazol-4-yl)methanesulfonamide]					≥ 75%	≥ 75%	
CC(=O)Nc1cnn(C(=O)N2CC3CN(Cc4cccc(Oc5ccc(Cl)cc5)c4)CC3C2)c1 (centres unmarked) [Example 316, N-(1-(5-(3-(4-chlorophenoxy)benzyl)octahydropyrrolo [3,4-c]pyrrole-2-carbonyl)-1H-pyrazol-4-yl)acetamide]					≥ 75%	≥ 75%	
CS(=O)(=O)Nc1cnn(C(=O)N2CCN(Cc3ccc(-c4nc5ccccc5o4)cc3C(F)(F)F)CC2)c1 [Example 304, N-(1-(4-(4-(benzo[d]oxazol-2-yl)-2-(trifluoromethyl)benzyl)piperazine-1-carbonyl)-1H-pyrazol-4-yl)methanesulfonamide]					25 to 50%	≥ 75%	
CS(=O)(=O)Nc1cnn(C(=O)N2CCN(Cc3ccc(-c4ccc(C(F)(F)F)nc4)cc3C(F)(F)F)CC2)c1 [Example 301, N-(1-(4-(2-(trifluoromethyl)-4-(6-(trifluoromethyl)pyridin-3-yl)benzyl)piperazine-1-carbonyl)-1H-pyrazol-4-yl)methanesulfonamide]	≥ 75%	≥ 75%					
CS(=O)(=O)Nc1cnn(C(=O)N2CCN(Cc3ccc(-c4cccnn4)cc3C(F)(F)F)CC2)c1 [Example 311, N-(1-(4-(4-(pyridazin-3-yl)-2-(trifluoromethyl)benzyl)piperazine-1-carbonyl)-1H-pyrazol-4-yl)methanesulforamide]					≥ 75%	50 to 75%	
CC(=O)N(C)c1cnn(C(=O)N2CC3CN(Cc4ccc(N5CCCC5)c(Cl)c4)CC3C2)c1 (centres unmarked) [Example 123, N-(1-(5-(3-chloro-4-(pyrrolidin-1-yl)benzyl)octahydropyrrolo[3,4-c]pyrrole-2-carbonyl)-1H-pyrazol-4-yl)-N-methylacetamide]			≥ 75%	≥ 75%			IC50 [3]: ≤ 100 nM; IC50 [4]: ≤ 100 nM
CC(=O)N(C)c1cnn(C(=O)N2CC3CN(Cc4cccc(OCc5ccccc5)c4)CC3C2)c1 (centres unmarked) [Example 239, N-(1-(5-(3-(benzyloxy)benzyl)octahydropyrrolo[3,4-c]pyrrole-2-carbonyl)-1H-pyrazol-4-yl)-N-methylacetamide]			≥ 75%	≥ 75%			IC50 [3]: ≤ 100 nM; IC50 [4]: ≤ 100 nM

The next lines start with results.

inhibition at 10 µM [1]	inhibition at 10 µM [2]	inhibition at 1 µM [3]	inhibition at 1 µM [4]	inhibition at 1 µM [1]	inhibition at 1 µM [2]	SMILES	further results
≥ 75%	≥ 75%	0 to 25%	0 to 25%			COc1ccccc1CN1CCC2(CCN(C(=O)n3cc(N(C)C(C)=O)cn3)C2)C1 (centres unmarked) [Example 56, N-(1-(7-(2-methoxybenzyl)-2,7-diazaspiro[4.4]nonane-2-carbonyl)-1H-pyrazol-4-yl)-N-methylacetamide]	
				25 to 50%	≥ 75%	C#Cc1ccc(CN2CCN(C(=O)n3cc(NS(C)(=O)=O)cn3)CC2)cc1 [Example 318, N-(1-(4-(4-ethynylbenzyl)piperazine-1-carbonyl)-1H-pyrazol-4-yl)methanesulfonamide]	
≥ 75%	≥ 75%	50 to 75%	0 to 25%			CC(=O)N(C)c1cnn(C(=O)N2CCC3(CCN(Cc4cccc(C)c4)C3)C2)c1 (centres unmarked) [Example 80, N-methyl-N-(1-(7-(3-methylbenzyl)-2,7-diazaspiro[4.4]nonane-2-carbonyl)-1H-pyrazol-4-yl)acetamide]	
				≥ 75%	≥ 75%	CS(=O)(=O)Nc1cnn(C(=O)N2CCC3(CCN(Cc4ccc(Cl)c(Cl)c4)C3)C2)c1 (centres unmarked) [Example 283, N-(1-(7-(3,4-dichlorobenzyl)-2,7-diazaspiro[4.4]nonane-2-carbonyl)-1H-pyrazol-4-yl)methanesulfonamide]	
≥ 75%	≥ 75%	25 to 50%	0 to 25%			COc1ccc(CN2CCC3(CCN(C(=O)n4cc(N(C)C(C)=O)cn4)C3)C2)cc1 (centres unmarked) [Example 77, N-(1-(7-(4-methoxybenzyl)-2,7-diazaspiro[4.4]nonane-2-carbonyl)-1H-pyrazol-4-yl)-N-methylacetamide]	
				≥ 75%	≥ 75%	CS(=O)(=O)Nc1cnn(C(=O)N2CCC3(CCN(Cc4ccc(N5CCCC5)cc4C(F)(F)F)C3)C2)c1 (centres unmarked) [Example 285, N-(1-(7-(4-(pyrrolidin-1-yl)-2-(trifluoromethyl)benzyl)-2,7-diazaspiro[4.4]nonane-2-carbonyl)-1H-pyrazol-4-yl)methanesulfonamide]	
				50 to 75%	0 to 25%	Cc1nnc(-c2ccc(CN3CCN(C(=O)n4cc(NS(C)(=O)=O)cn4)CC3)c(C(F)(F)F)c2)o1 [Example 306, N-(1-(4-(4-(5-methyl-1,3,4-oxadiazol-2-yl)-2-(trifluoromethyl)benzyl)piperazine-1-carbonyl)-1H-pyrazol-4-yl)methanesulfonamide]	
				≥ 75%	≥ 75%	CS(=O)(=O)Nc1cnn(C(=O)N2CCC3(CCN(Cc4ccc(N5CCCC5)c(Cl)c4)C3)CC2)c1 [Example 298, N-(1-(2-(3-chloro-4-(pyrrolidin-1-yl)benzyl)-2,8-diazaspiro[4.5]|decane-8-carbonyl)-1H-pyrazol-4-yl)methanesulfonamide]	
				≥ 75%	≥ 75%	CS(=O)(=O)Nc1cnn(C(=O)N2CCC3(CCN(Cc4cccc(Cl)c4Cl)C3)C2)c1 (centres unmarked) [Example 288, N-(1-(7-(2,3-dichlorobenzyl)-2,7-diazaspiro[4.4]nonane-2-carbonyl)-1H-pyrazol-4-yl)methanesulfonamide]	
				≥ 75%	0 to 25%	Cc1nccn1-c1ccc(CN2CCN(C(=O)n3cc(NS(C)(=O)=O)cn3)CC2)c(C(F)(F)F)c1 [Example 308, N-(1-(4-(4-(2-methyl-1H-imidazol-1-yl)-2-(trifluoromethyl)benzyl)piperazine-1-carbonyl)-1H-pyrazol-4-yl)methanesulfonamide]	
				≥ 75%	25 to 50%	CS(=O)(=O)Nc1cnn(C(=O)N2CCN(Cc3ccc(-c4ccnnc4)cc3C(F)(F)F)CC2)c1 [Example 312, N-(1-(4-(4-(pyridazin-4-yl)-2-(trifluoromethyl)benzyl)piperazine-1-carbonyl)-1H-pyrazol-4-yl)methanesulfonamide]	

Source: patent US10323038B2, “Pyrazole compounds and methods of making and using same” (ABIDE THERAPEUTICS, INC., priority 2015, dated 2019)
